From PubChem BioAssay AID248 (DTP/NCI, 2004)
Where “and” joins values, the source holds several entries; their conditions need not be identical. Equal values may be shown once. Toxic doses and inconclusive results are not listed. No stated cut-off is given here; in the data, active means T/C of 150% or more; inactive means T/C below 125%. Square brackets hold non-standard residues; d marks the D form. Peptide text beside a SMILES is read from it. * marks the point of attachment. ξ: configuration not given here. Pentanoyl = CCCCC(=O)*; ξP = O=C(O)C1CCCN1; Ava = NCCCCC(=O)O

System: L1210 leukemia ip in BDF1 mice, survival T/C
Assay: NCI In Vivo Anticancer Drug Screen. Data for tumor model L1210 Leukemia (intraperitoneal) in B6D2F1 (BDF1) mice
Conditions: endpoint: mean survival time, higher = longer survival
Procedure, shortened: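 In this screen, tumor-bearing mice given compound are compared to those given vehicle, and their survival values are reported as a treated-to-control quotient.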

[1] = dose: 100.0 mg/kg/injection, schedule: Q01DX001 (ip), vehicle: saline
[2] = dose: 200.0 mg/kg/injection, schedule: Q01DX001 (ip), vehicle: saline
[3] = dose: 400.0 mg/kg/injection, schedule: Q01DX001 (ip), vehicle: saline
[4] = dose: 100.0 mg/kg/injection, schedule: Q01DX001 (ip), vehicle: Klucel (hydroxypropylcellulose) (HPC)
[5] = dose: 100.0 mg/kg/injection, schedule: Q01DX009 (ip), vehicle: Klucel (hydroxypropylcellulose) (HPC)
[6] = dose: 200.0 mg/kg/injection, schedule: Q01DX001 (ip), vehicle: Klucel (hydroxypropylcellulose) (HPC)
[7] = dose: 200.0 mg/kg/injection, schedule: Q01DX009 (ip), vehicle: Klucel (hydroxypropylcellulose) (HPC)
[8] = dose: 100.0 mg/kg/injection, schedule: Q01DX001 (ip), vehicle: saline with Tween-80
[9] = dose: 200.0 mg/kg/injection, schedule: Q01DX001 (ip), vehicle: saline with Tween-80
[10] = dose: 400.0 mg/kg/injection, schedule: Q01DX001 (ip), vehicle: saline with Tween-80
[11] = dose: 100.0 mg/kg/injection, schedule: Q04DX003 (ip), vehicle: other
[12] = dose: 200.0 mg/kg/injection, schedule: Q04DX003 (ip), vehicle: other
[13] = dose: 400.0 mg/kg/injection, schedule: Q04DX003 (ip), vehicle: other
[14] = dose: 100.0 mg/kg/injection, schedule: Q04DX003 (ip), vehicle: saline

Measured: T/C

O=C(O)C1CCCC2C(O)CCC(=O)C12 (stereo unspecified)
inactive: [1] 95 % of control and 107 % of control | dose: 100.0 mg/kg/injection, schedule: Q01DX009 (ip), vehicle: saline sonified 98 % of control | dose: 100.0 mg/kg/injection, schedule: Q04DX003 (ip), vehicle: saline sonified 100 % of control | [2] 104 % of control and 101 % of control | dose: 200.0 mg/kg/injection, schedule: Q01DX009 (ip), vehicle: saline sonified 102 % of control | dose: 200.0 mg/kg/injection, schedule: Q04DX003 (ip), vehicle: saline sonified 92 % of control | [3] 107 % of control and 96 % of control | dose: 400.0 mg/kg/injection, schedule: Q01DX009 (ip), vehicle: saline sonified 93 % of control | dose: 400.0 mg/kg/injection, schedule: Q04DX003 (ip), vehicle: saline sonified 95 % of control

O=C(NCCCl)NC1c2cc(Cl)ccc2-c2c(Cl)cc(Cl)cc21 (stereo unspecified)
inactive: [4] 92 % of control | [5] 87 % of control | dose: 100.0 mg/kg/injection, schedule: Q04DX003 (ip), vehicle: Klucel (hydroxypropylcellulose) (HPC) 94 % of control | [6] 96 % of control | [7] 90 % of control | dose: 200.0 mg/kg/injection, schedule: Q04DX003 (ip), vehicle: Klucel (hydroxypropylcellulose) (HPC) 98 % of control | dose: 400.0 mg/kg/injection, schedule: Q01DX001 (ip), vehicle: Klucel (hydroxypropylcellulose) (HPC) 92 % of control | dose: 400.0 mg/kg/injection, schedule: Q01DX009 (ip), vehicle: Klucel (hydroxypropylcellulose) (HPC) 95 % of control | dose: 400.0 mg/kg/injection, schedule: Q04DX003 (ip), vehicle: Klucel (hydroxypropylcellulose) (HPC) 98 % of control

COC1(C#N)C(=O)c2ccccc2C1=O
inactive: [8] 97 % of control | [9] 108 % of control | [10] 94 % of control

Nc1cccc(OCCCOc2cccc(N)c2)c1
inactive: dose: 50.0 mg/kg/injection, schedule: Q01DX009 (ip), vehicle: Klucel (hydroxypropylcellulose) (HPC) 96 % of control | [5] 101 % of control | [7] 90 % of control

CCOC(=O)C(Br)C(Br)c1cccc([N+](=O)[O-])c1 (stereo unspecified)
inactive: dose: 100.0 mg/kg/injection, schedule: Q01DX009 (ip), vehicle: other 105 % of control | [11] 106 % of control | [12] 94 % of control | [13] 86 % of control

O=C(O)CC(NS(=O)(=O)Cc1ccccc1)C(=O)O (stereo unspecified)
inactive: [11] 94 % of control | [12] 92 % of control | [13] 92 % of control

CCCCC(=O)NCC(=O)N1CCCC1C(=O)NCCCCC(=O)OC (stereo unspecified) (Pentanoyl-Gly-[ξP]-[Ava]-OMe)
inactive: [1] 98 % of control | [2] 95 % of control | [3] 95 % of control

Cc1ccc(CCCC(CC(=O)O)C(=O)O)cc1 (stereo unspecified)
inactive: dose: 12.5 mg/kg/injection, schedule: Q01DX001 (ip), vehicle: saline with Tween-80 100 % of control | dose: 25.0 mg/kg/injection, schedule: Q01DX001 (ip), vehicle: saline with Tween-80 98 % of control | dose: 50.0 mg/kg/injection, schedule: Q01DX001 (ip), vehicle: saline with Tween-80 88 % of control

CCOC(=O)NP(=O)(NNc1ccccc1)NNc1ccccc1
inactive: dose: 50.0 mg/kg/injection, schedule: Q01DX001 (ip), vehicle: carboxymethylcellulose (CMC) 104 % of control | dose: 100.0 mg/kg/injection, schedule: Q01DX001 (ip), vehicle: carboxymethylcellulose (CMC) 89 % of control | dose: 200.0 mg/kg/injection, schedule: Q01DX001 (ip), vehicle: carboxymethylcellulose (CMC) 95 % of control | dose: 400.0 mg/kg/injection, schedule: Q01DX001 (ip), vehicle: carboxymethylcellulose (CMC) 89 % of control

CNC(=O)Oc1ccc(NC(=O)OC)cc1
inactive: dose: 100.0 mg/kg/injection, schedule: Q04DX003 (ip), vehicle: saline with Tween-80 93 % of control | dose: 200.0 mg/kg/injection, schedule: Q04DX003 (ip), vehicle: saline with Tween-80 87 % of control

CN(C)C(=O)c1ccc[n+](CC(=O)Nc2ccc(Cl)cc2)c1
inactive: [14] 98 % of control

CNC(COC(=O)c1ccc(N)cc1)C1CCCCC1 (stereo unspecified)
inactive: dose: 75.0 mg/kg/injection, schedule: Q01DX001 (ip), vehicle: saline 97 % of control

Cc1csc2nc(-c3ccccc3)[nH]c(=O)c12
inactive: dose: 75.0 mg/kg/injection, schedule: Q01DX001 (ip), vehicle: saline sonified 86 % of control | dose: 150.0 mg/kg/injection, schedule: Q01DX001 (ip), vehicle: saline sonified 101 % of control | dose: 300.0 mg/kg/injection, schedule: Q01DX001 (ip), vehicle: saline sonified 107 % of control

CC12CCc3occc3C1CCC13CC(CO)C(O)(CCC12)C3 (stereo unspecified)
inactive: [14] 94 % of control | dose: 200.0 mg/kg/injection, schedule: Q04DX003 (ip), vehicle: saline 93 % of control

Cc1nc(N)[nH]c(=O)c1CCCNC(=O)CCl (tested in a mixture with another compound)
inactive: dose: 50.0 mg/kg/injection, schedule: Q01DX001 (ip), vehicle: Klucel (hydroxypropylcellulose) (HPC) 114 % of control | [4] 108 % of control | [6] 100 % of control

CCCCCCCCC/C(C)=C1/SC(=S)NC1=O
inactive: [1] 102 % of control | dose: 100.0 mg/kg/injection, schedule: Q01DX009 (ip), vehicle: saline 88 % of control | [2] 93 % of control | [3] 95 % of control

CC(=O)Oc1ccccc1C1OC(=O)c2ccccc2N1C(C)=O (stereo unspecified)
inactive: [8] 106 % of control | dose: 100.0 mg/kg/injection, schedule: Q01DX009 (ip), vehicle: saline with Tween-80 101 % of control and 103 % of control | dose: 100.0 mg/kg/injection, schedule: Q04DX002 (ip), vehicle: saline with Tween-80 105 % of control and 87 % of control | [9] 104 % of control | dose: 200.0 mg/kg/injection, schedule: Q01DX009 (ip), vehicle: saline with Tween-80 93 % of control and 102 % of control | dose: 200.0 mg/kg/injection, schedule: Q04DX002 (ip), vehicle: saline with Tween-80 96 % of control and 97 % of control | [10] 103 % of control | dose: 400.0 mg/kg/injection, schedule: Q01DX009 (ip), vehicle: saline with Tween-80 93 % of control | dose: 400.0 mg/kg/injection, schedule: Q04DX002 (ip), vehicle: saline with Tween-80 94 % of control and 105 % of control
